From paper PMC3199943, “Screening the MayBridge Rule of 3 Fragment Library for Compounds That Interact with the Trypanosoma brucei myo-Inositol-3-Phosphate Synthase and/or Show Trypanocidal Activity” (Molecular Biology International, 2011)

System: A549 cells
Assay: Cytotoxicity against A549 cells, Alamar Blue
Assay type: cell-based
Conditions: Homo sapiens, A549, 65 h; Supplementary Table 1; compound 0.5 mM; percentage of controls (n=1)
Method in brief: (§1)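 Alamar Blue read-out after a 5 h dye incubation that followed ~65 h compound exposure. Cells: HeLa or A549, 2 × 10^4/well, DMEM + 10% FCS + 2 mM L-Glutamine.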

Structure (SMILES)	viability at 500 µM
Cc1ccsc1CN [compound 83, (3‐methyl‐2‐thienyl)methylamine]	124%
CCC1CCC(N)CC1 (stereo not shown) [compound 84, 4‐ethylcyclohexanamine]	118%
NC(=S)c1ccno1 [compound 86, isoxazole‐5‐carbothioamide]	105%
ON=C1CCCCCN1 [compound 87, azepan‐2‐one oxime]	115%
Nc1ccc(F)cc1F [compound 88, 2,4‐difluoroaniline]	132%
Nc1cc(F)cc(F)c1 [compound 89, 3,5‐difluoroaniline]	132%
O=C(O)C1CCNCC1 [compound 90, piperidine‐4‐carboxylic acid]	132%
O=C(O)C1CCCCO1 (stereo not shown) [compound 93, tetrahydropyran‐2‐carboxylic acid]	107%
Cc1cccc(C)c1C#N [compound 94, 2,6‐dimethylbenzonitrile]	114%
C#Cc1ccc(OC)cc1 [compound 96, 1‐eth‐1‐ynyl‐4‐methoxybenzene]	111%
Cc1ccc(C#N)c(N)c1 [compound 97, 2-amino-4-methylbenzonitrile]	96.2%
N#CCc1ccc(O)cc1 [compound 98, 2‐(4‐hydroxyphenyl)acetonitrile]	115%
O=C1Cc2ccccc2N1 [compound 99, indolin-2-one]	229%
Nc1ccc2occc2c1 [compound 100, 1‐benzofuran‐5‐amine]	110%
Cc1nc(N)ccc1C#N [compound 102, 6‐amino‐2‐methylnicotinonitrile]	76.1%
O=C(O)C1NCCS1 (stereo not shown) [compound 103, 1,3-thiazolane-2-carboxylic acid]	107%
NC1Cc2ccccc2C1 [compound 104, indan‐2‐amine]	123%
COc1ccc(C#N)cn1 [compound 108, 6‐methoxynicotinonitrile]	125%
c1ccc2c(c1)CCOC2 [compound 110, 3,4‐dihydro‐1H‐benzo[c]pyran]	114%
c1cnc2c(n1)CCCC2 [compound 111, 5,6,7,8‐tetrahydroquinoxaline]	96.1%
Oc1noc2ccccc12 [compound 112, benzo[d]isoxazol‐3‐ol]	76.7%
Cc1cccc(CN)c1C [compound 113, 2,3‐dimethylbenzylamine]	83.6%

Molecular target: T1, TbINO1 (Trypanosoma brucei brucei, UniProt Q5QQ46)
T1 sequence (Q5QQ46 1-528): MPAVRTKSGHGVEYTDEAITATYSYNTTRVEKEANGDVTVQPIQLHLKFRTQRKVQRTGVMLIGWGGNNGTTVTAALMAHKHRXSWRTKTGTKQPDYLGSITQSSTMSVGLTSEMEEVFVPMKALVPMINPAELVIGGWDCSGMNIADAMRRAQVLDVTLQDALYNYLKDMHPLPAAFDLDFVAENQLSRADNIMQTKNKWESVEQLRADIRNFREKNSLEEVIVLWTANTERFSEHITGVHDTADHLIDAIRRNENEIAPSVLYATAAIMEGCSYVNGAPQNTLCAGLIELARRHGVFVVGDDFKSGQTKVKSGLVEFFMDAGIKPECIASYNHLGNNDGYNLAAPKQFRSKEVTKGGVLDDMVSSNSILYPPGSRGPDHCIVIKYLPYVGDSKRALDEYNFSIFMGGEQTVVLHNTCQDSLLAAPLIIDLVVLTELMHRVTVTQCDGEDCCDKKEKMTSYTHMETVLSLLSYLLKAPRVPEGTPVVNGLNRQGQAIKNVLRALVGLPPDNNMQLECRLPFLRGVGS
Assay: biochemical
Assay type: binding
Conditions: Supplementary Table 1; compound 1mM; mean ± SD from Boltzman curve fitting; read-out: Tb Ino1 Tm Shift [˚C]

Structure (SMILES)	ΔTm at 1000 µM
Cc1cccc(C)c1C#N [compound 94, 2,6‐dimethylbenzonitrile]	1.3 ± 0.06 °C
N#CCc1ccc(O)cc1 [compound 98, 2‐(4‐hydroxyphenyl)acetonitrile]	0.27 ± 0.05 °C
NC1Cc2ccccc2C1 [compound 104, indan‐2‐amine]	0.89 ± 0.05 °C

Same assay, conditions: read-out: Tb Ino1 Tm Shift [˚C]

Structure (SMILES)	ΔTm at 1000 µM
Cc1ccsc1CN [compound 83, (3‐methyl‐2‐thienyl)methylamine]	0.43 ± 0.06 °C
CCC1CCC(N)CC1 (stereo not shown) [compound 84, 4‐ethylcyclohexanamine]	0.44 ± 0.06 °C
NC(=S)c1ccno1 [compound 86, isoxazole‐5‐carbothioamide]	0.94 ± 0.08 °C
ON=C1CCCCCN1 [compound 87, azepan‐2‐one oxime]	0.52 ± 0.06 °C
Nc1ccc(F)cc1F [compound 88, 2,4‐difluoroaniline]	1.11 ± 0.07 °C
Nc1cc(F)cc(F)c1 [compound 89, 3,5‐difluoroaniline]	0.3 ± 0.07 °C
O=C(O)C1CCNCC1 [compound 90, piperidine‐4‐carboxylic acid]	0.5 ± 0.06 °C
O=C(O)C1CCCCO1 (stereo not shown) [compound 93, tetrahydropyran‐2‐carboxylic acid]	0.55 ± 0.06 °C
C#Cc1ccc(OC)cc1 [compound 96, 1‐eth‐1‐ynyl‐4‐methoxybenzene]	0.48 ± 0.06 °C
Nc1ccc2occc2c1 [compound 100, 1‐benzofuran‐5‐amine]	0.78 ± 0.05 °C
Cc1nc(N)ccc1C#N [compound 102, 6‐amino‐2‐methylnicotinonitrile]	0.27 ± 0.06 °C
COc1ccc(C#N)cn1 [compound 108, 6‐methoxynicotinonitrile]	0.38 ± 0.07 °C
c1ccc2c(c1)CCOC2 [compound 110, 3,4‐dihydro‐1H‐benzo[c]pyran]	0.34 ± 0.06 °C
c1cnc2c(n1)CCCC2 [compound 111, 5,6,7,8‐tetrahydroquinoxaline]	0.16 ± 0.06 °C
Oc1noc2ccccc12 [compound 112, benzo[d]isoxazol‐3‐ol]	0.23 ± 0.06 °C
Cc1cccc(CN)c1C [compound 113, 2,3‐dimethylbenzylamine]	0.12 ± 0.07 °C

Same assay, conditions: read-out: TbIno1 Tm shift [°C]

Structure (SMILES)	ΔTm at 1000 µM
Cc1ccc(C#N)c(N)c1 [compound 97, 2-amino-4-methylbenzonitrile]	1.58 ± 0.07 °C
O=C1Cc2ccccc2N1 [compound 99, indolin-2-one]	2.04 ± 0.07 °C
O=C(O)C1NCCS1 (stereo not shown) [compound 103, 1,3-thiazolane-2-carboxylic acid]	2.63 ± 0.08 °C

System: HeLa cells
Assay: cells
Conditions: Homo sapiens, HeLa, 65 h, read-out: HeLa Cells Alamar Blue
Method in brief: as §1

Structure (SMILES)	viability at 500 µM
Cc1ccsc1CN [compound 83, (3‐methyl‐2‐thienyl)methylamine]	95.4 ± 10%
CCC1CCC(N)CC1 (stereo not shown) [compound 84, 4‐ethylcyclohexanamine]	90.7 ± 14.2%
NC(=S)c1ccno1 [compound 86, isoxazole‐5‐carbothioamide]	102 ± 3.4%
ON=C1CCCCCN1 [compound 87, azepan‐2‐one oxime]	92.3 ± 17.4%
Nc1ccc(F)cc1F [compound 88, 2,4‐difluoroaniline]	87.6 ± 10.6%
Nc1cc(F)cc(F)c1 [compound 89, 3,5‐difluoroaniline]	104 ± 10.5%
O=C(O)C1CCNCC1 [compound 90, piperidine‐4‐carboxylic acid]	106 ± 2%
O=C(O)C1CCCCO1 (stereo not shown) [compound 93, tetrahydropyran‐2‐carboxylic acid]	97.5 ± 2.4%
Cc1cccc(C)c1C#N [compound 94, 2,6‐dimethylbenzonitrile]	96.4 ± 13.9%
C#Cc1ccc(OC)cc1 [compound 96, 1‐eth‐1‐ynyl‐4‐methoxybenzene]	94 ± 4.9%
Cc1ccc(C#N)c(N)c1 [compound 97, 2-amino-4-methylbenzonitrile]	81.4 ± 7.4%
N#CCc1ccc(O)cc1 [compound 98, 2‐(4‐hydroxyphenyl)acetonitrile]	92.9 ± 6.5%
O=C1Cc2ccccc2N1 [compound 99, indolin-2-one]	66.6 ± 18.7%
Nc1ccc2occc2c1 [compound 100, 1‐benzofuran‐5‐amine]	80.2 ± 12.5%
Cc1nc(N)ccc1C#N [compound 102, 6‐amino‐2‐methylnicotinonitrile]	69.4 ± 12.4%
O=C(O)C1NCCS1 (stereo not shown) [compound 103, 1,3-thiazolane-2-carboxylic acid]	103 ± 6.4%
NC1Cc2ccccc2C1 [compound 104, indan‐2‐amine]	70 ± 18.5%
COc1ccc(C#N)cn1 [compound 108, 6‐methoxynicotinonitrile]	95 ± 10.2%
c1ccc2c(c1)CCOC2 [compound 110, 3,4‐dihydro‐1H‐benzo[c]pyran]	88.7 ± 19.2%
c1cnc2c(n1)CCCC2 [compound 111, 5,6,7,8‐tetrahydroquinoxaline]	95.6 ± 0.8%
Cc1cccc(CN)c1C [compound 113, 2,3‐dimethylbenzylamine]	89.3 ± 15.9%

Same assay, conditions: Homo sapiens, HeLa, 65 h, read-out: HeLa Cells Alamar Blue (% survival)

Structure (SMILES)	viability at 500 µM
Cc1ccc(C#N)c(N)c1 [compound 97, 2-amino-4-methylbenzonitrile]	81.4 ± 7.4%
O=C1Cc2ccccc2N1 [compound 99, indolin-2-one]	66.6 ± 18.7%
O=C(O)C1NCCS1 (stereo not shown) [compound 103, 1,3-thiazolane-2-carboxylic acid]	103 ± 6.4%

Same assay, conditions: Homo sapiens, HeLa, 65 h, read-out: HeLa Cells Alamar Blue, Supplementary Table 1; compound 0.5 mM; percentage of controls; mean ± SD (n=3) or SE (n=2)

Structure (SMILES)	viability at 500 µM
Oc1noc2ccccc12 [compound 112, benzo[d]isoxazol‐3‐ol]	83 ± 11.2%

Same assay, conditions: Homo sapiens, HeLa, read-out: HeLa ED50

Structure (SMILES)	CC50
O=C1Cc2ccccc2N1 [compound 99, indolin-2-one]	> 2000 µM
